Results reported in article PMC6508583 (Journal of the American Chemical Society, 2019).
≈ marks a conversion by molar mass, not a printed value. Where “and” joins values, the source holds several entries; their conditions need not be identical. Identical values can stand only once. Like-named read-outs stand apart in the source and are kept apart here.

What was measured:
MRSA = test: Antibacterial activity against reference strains: MRSA; assay type: cell-based; details: for Antibacterial activity (MIC) MRSA AG038: strain AG038; for Antibacterial activity (MIC) MRSA AG042: strain AG042 carries the AAC(6)’, ANT(4’,4’’) and APH(3’) genes
[1] = tested on: K. pneumoniae clinical isolates carrying two or more resistance determinants; assay type: cell-based; details: AAC(3), AAC(6’)
E. coli [2] = test: Antibacterial activity against reference strains: E. coli; details: for Antibacterial activity (MIC) E. coli AG001: strain AG001; for Antibacterial activity (MIC) E. coli AG003: strain AG003 carries the AAC(3) gene; for MIC: Escherichia coli
E. coli [3] = test: Neutropenic mouse E. coli septicemia model; assay type: in vivo
[4] = tested on: wild-type E. cloacae clinical isolates; test: MIC distribution, clinical wild-type E. cloacae isolates; assay type: cell-based; details: panel of wild-type clinical isolates
[5] = tested on: E. coli clinical isolates carrying two or more resistance determinants; test: Activity against E. coli clinical isolates with multiple resistance determinants; assay type: cell-based
[6] = tested on: wild-type E. coli clinical isolates; test: MIC distribution, clinical wild-type E. coli isolates; assay type: cell-based; details: panel of wild-type clinical isolates
[7] = tested on: wild-type bacterial ribosome; test: Cell-free translation assay, wild-type bacterial ribosome; assay type: biochemical; details: in vitro translation inhibition
E. cloacae = test: Antibacterial activity against reference strains: E. cloacae; assay type: cell-based; details: for Antibacterial activity (MIC) E. cloacae AG290: strain AG290
[8] = tested on: Mit13 hybrid ribosome (decoding A site of the human mitochondrial ribosome); assay type: biochemical; details: for Selectivity Mit 13: Mit13 over wt bacterial ribosome; for IC50 Mit13: in vitro translation inhibition, Mit13 hybrid ribosome
[9] = tested on: E. coli carrying specific resistance determinants; test: Activity against wild-type and engineered E. coli carrying specific AMEs or RMTs; assay type: cell-based; details: for Activity (MIC) E. coli AG006: strain AG006, WT; for Activity (MIC) E. coli AG007: strain AG007, AAC(3); for Activity (MIC) E. coli AG008: strain AG008, ANT(2’’); for Activity (MIC) E. coli AG009: strain AG009, AAC(6’); for Activity (MIC) E. coli AG036: strain AG036, ANT(4′,4′′); for Activity (MIC) E. coli AG103: strain AG103, armA; for Activity (MIC) E. coli AG105: strain AG105, AAC(2′); for Activity (MIC) E. coli AG166: strain AG166, APH(3′); for MIC: Escherichia coli
[10] = tested on: Cyt14 hybrid ribosome (decoding A site of the human cytoplasmic ribosome); assay type: biochemical; details: for Selectivity Cyt14: Cyt14 over wt bacterial ribosome; for IC50 Cyt 14: in vitro translation inhibition, Cyt14 hybrid ribosome
[11] = tested on: Mycobacterium smegmatis wild type; test: Antibacterial activity, wild-type M. smegmatis
[12] = tested on: Mycobacterium tuberculosis clinical isolates; test: microbe, parasite or virus in culture; assay type: cell-based; details: clinical isolates
K. pneumoniae = test: Antibacterial activity against reference strains: K. pneumoniae; assay type: cell-based; details: strain AG215
Mycobacterium abscessus = test: microbe, parasite or virus in culture; assay type: cell-based
[13] = tested on: wild-type K. pneumoniae clinical isolates; test: MIC distribution, clinical wild-type K. pneumoniae isolates; assay type: cell-based; details: panel of wild-type clinical isolates
[14] = tested on: E. cloacae clinical isolates carrying two or more resistance determinants; assay type: cell-based; details: AAC(6’)
[15] = tested on: A1555G mutant mitochondrial hybrid ribosome; assay type: biochemical, human; details: for Selectivity A1555G: A1555G over wt bacterial ribosome; for IC50 A1555G: in vitro translation inhibition, A1555G mutant mitochondrial hybrid ribosome
A. baumannii = test: Antibacterial activity against reference strains: A. baumannii; assay type: cell-based; details: strain AG225
[16] = tested on: NIH 3T3 mouse embryonic fibroblast cells; assay type: cell-based
E coli = test: Neutropenic mouse thigh infection model; assay type: in vivo; details: dose 3 mg.kg^−1
[17] = tested on: E coli 70S ribosome (helix 44, A1408); test: Quantitative dimethyl sulfate footprinting of the 70S ribosome; assay type: binding; details: read-out: apparent Kd; DMS footprinting, % protection of N1 of A1408, E. coli 70S ribosome
P. aeruginosa = test: Antibacterial activity against reference strains: P. aeruginosa; details: for Antibacterial activity (MIC) P. aeruginosa AG031: strain AG031 carries the APH(3’) gene

## CCC[C@H]1[C@H](O)[C@@H](N)[C@@H](O[C@H]2[C@H](O[C@@H]3O[C@H](CO)[C@@H](O[C@H]4O[C@@H](CN)[C@@H](O)[C@H](O)[C@H]4N)[C@H]3O)[C@@H](O)[C@H](N)C[C@@H]2N)O[C@@H]1CO [Compound 5, 4’-deoxy-4’-propylparomomycin]
MRSA
  Antibacterial activity (MIC) MRSA AG038: 1 to 2 µg/mL
  Antibacterial activity (MIC) MRSA AG042: 2 µg/mL
[1]
  Activity (MIC) K. pneumoniae isolate 201440494: 0.5 µg/mL
  Activity (MIC) K. pneumoniae isolate 2014310114: 0.25 µg/mL
[1]; RmtB
  Activity (MIC) K. pneumoniae isolate 2014310108: 1 µg/mL
E. coli [2]
  Antibacterial activity (MIC) E. coli AG001: 1 to 2 µg/mL
  Antibacterial activity (MIC) E. coli AG003: 1 to 2 µg/mL
E. coli [3]; 4 mg.kg^−1
  reduction of bacterial burden in the blood, more than the parent paromomycin at the same dose level: 1 log
E. coli [3]; 4 mg.kg^−1 dose
  reduction of bacterial burden in the blood: approximately 1.5 log units
[4]
  MIC90 E. cloacae: 1 µg/mL (≈ 1.56 µM)
[5]; AAC(3), AAC(6’)
  Activity (MIC) E. coli isolate 201430298: 1 µg/mL
  Activity (MIC) E. coli isolate 2014251408: 2 µg/mL
[5]; AAC(3), APH(3’), RmtB
  Activity (MIC) E. coli isolate 2014405344: 4 µg/mL
[5]; AAC(6’), ANT(2’’)
  Activity (MIC) E. coli isolate 201441114: 1 µg/mL
[6]
  MIC90 E. coli: 2 µg/mL (≈ 3.12 µM)
[7]
  IC50 wt: 0.03 µg/mL (≈ 0.0467 µM)
E. cloacae
  Antibacterial activity (MIC) E. cloacae AG290: 0.5 to 1 µg/mL
[8]
  Selectivity Mit 13: 5567
  IC50 Mit13: 167 µg/mL (≈ 260 µM)
[9]
  Activity (MIC) E. coli AG006: 0.5 to 1 µg/mL
  Activity (MIC) E. coli AG007: 2 µg/mL
  Activity (MIC) E. coli AG008: 0.5 to 1 µg/mL
  Activity (MIC) E. coli AG009: 1 to 2 µg/mL
  Activity (MIC) E. coli AG036: 1 µg/mL
  Activity (MIC) E. coli AG103: 2 µg/mL
  Activity (MIC) E. coli AG105: 1 µg/mL
  Activity (MIC) E. coli AG166: 1 to 2 µg/mL
[10]
  Selectivity Cyt14: 2133
  IC50 Cyt 14: 64 µg/mL (≈ 99.7 µM)
[11]
  Antibacterial activity (MIC) Wild-type M. smegmatis: 0.16 µg/mL
[12]
  MIC M. tuberculosis clinical isolates: 1 µg/mL (≈ 1.56 µM)
K. pneumoniae
  Antibacterial activity (MIC) K. pneumoniae AG215: 0.5 µg/mL
Mycobacterium abscessus; AAC(2’) gene deleted
  MIC M. abscessus, AAC(2’) gene deleted: 4 µg/mL and 2 µg/mL
Mycobacterium abscessus; AAC(2’) gene present
  MIC M. abscessus: 4 µg/mL (≈ 6.23 µM)
[13]
  MIC90 K. pneumoniae: 1 µg/mL (≈ 1.56 µM)
[14]; AAC(3)
  Activity (MIC) E. cloacae isolate 201435487: 0.5 µg/mL
[14]; AAC(3), APH(3’)
  Activity (MIC) E. cloacae isolate 201333207: 0.5 µg/mL
[14]; AAC(3), RmtC
  Activity (MIC) E. cloacae isolate 201385168: 1 µg/mL
[14]; ANT(2’’)
  Activity (MIC) E. cloacae isolate 201430601: 0.5 µg/mL
[15]
  Selectivity A1555G: 1733
  IC50 A1555G: 52 µg/mL (≈ 81 µM)
A. baumannii
  Antibacterial activity (MIC) A. baumannii AG225: 2 µg/mL
[16]
  loss of cell viability: only minimal loss of cell viability
E coli
  log reduction in colony-forming units (CFUs) compared to vehicle: 1.5 log
[17]
  Kd: 0.34 ± 0.05 µM
P. aeruginosa
  Antibacterial activity (MIC) P. aeruginosa AG031: 8 µg/mL
P. aeruginosa; strain AG220 carries the APH(3’) gene
  Antibacterial activity (MIC) P. aeruginosa AG220: 2 to 4 µg/mL

## CCSC1C(CO)OC(OC2C(N)CC(N)C(O)C2OC2OC(CO)C(OC3OC(CN)C(O)C(O)C3N)C2O)C(N)C1O (stereo not shown) [Compound 4, 4’-deoxy-4’-ethylthioparomomycin]
MRSA
  Antibacterial activity (MIC) MRSA AG038: 4 µg/mL
  Antibacterial activity (MIC) MRSA AG042: 2 to 4 µg/mL
E. coli [2]
  Antibacterial activity (MIC) E. coli AG001: 8 µg/mL
  Antibacterial activity (MIC) E. coli AG003: 8 µg/mL
[7]
  IC50 wt: 0.04 µg/mL (≈ 0.0606 µM)
E. cloacae
  Antibacterial activity (MIC) E. cloacae AG290: 2 to 4 µg/mL
[8]
  Selectivity Mit 13: 2775
  IC50 Mit13: 111 µg/mL (≈ 168 µM)
[9]
  Activity (MIC) E. coli AG006: 1 to 2 µg/mL
  Activity (MIC) E. coli AG007: 4 µg/mL
  Activity (MIC) E. coli AG008: 1 µg/mL
  Activity (MIC) E. coli AG009: 4 µg/mL
  Activity (MIC) E. coli AG036: 1 to 2 µg/mL
  Activity (MIC) E. coli AG103: 8 µg/mL
  Activity (MIC) E. coli AG105: 2 to 4 µg/mL
  Activity (MIC) E. coli AG166: 4 µg/mL
[10]
  Selectivity Cyt14: 1500
  IC50 Cyt 14: 60 µg/mL (≈ 90.9 µM)
K. pneumoniae
  Antibacterial activity (MIC) K. pneumoniae AG215: 2 µg/mL
[15]
  Selectivity A1555G: 1150
  IC50 A1555G: 46 µg/mL (≈ 69.7 µM)
A. baumannii
  Antibacterial activity (MIC) A. baumannii AG225: 4 µg/mL
[16]
  loss of cell viability: only minimal loss of cell viability
P. aeruginosa
  Antibacterial activity (MIC) P. aeruginosa AG031: 32 µg/mL

## CN[C@@H]1[C@@H](O)[C@@H](O[C@@H]2[C@@H](O)[C@H](O[C@H]3OC(CNCCO)=CC[C@H]3N)[C@@H](N)C[C@H]2NC(=O)[C@@H](O)CCN)OC[C@]1(C)O [Plazomicin, reference compound]
MRSA; Staphylococcus aureus, MRSA, read-out: Antibacterial activity (MIC) MRSA AG038
  MIC: 2 µg/mL (≈ 3.37 µM)
E. coli [2]; read-out: Antibacterial activity (MIC) E. coli AG001
  MIC: 2 µg/mL (≈ 3.37 µM)
E. coli [2]; read-out: Antibacterial activity (MIC) E. coli AG003
  MIC: 2 to 4 µg/mL (≈ 3.37 to 6.75 µM)
[7]
  IC50 wt: 0.06 µg/mL (≈ 0.101 µM)
E. cloacae; Enterobacter cloacae, read-out: Antibacterial activity (MIC) E. cloacae AG290
  MIC: 0.5 µg/mL (≈ 0.844 µM)
[8]
  Selectivity Mit 13: 833
  IC50 Mit13: 50 µg/mL (≈ 84.4 µM)
[9]; read-out: Activity (MIC) E. coli AG006
  MIC: 0.5 to 1 µg/mL (≈ 0.844 to 1.69 µM)
[9]; read-out: Activity (MIC) E. coli AG007
  MIC: 2 µg/mL (≈ 3.37 µM)
[9]; read-out: Activity (MIC) E. coli AG008
  MIC: 0.5 to 1 µg/mL (≈ 0.844 to 1.69 µM)
[9]; read-out: Activity (MIC) E. coli AG009
  MIC: 2 µg/mL (≈ 3.37 µM)
[9]; read-out: Activity (MIC) E. coli AG036
  MIC: 1 µg/mL (≈ 1.69 µM)
[9]; read-out: Activity (MIC) E. coli AG103
  MIC: > 128 µg/mL
[9]; read-out: Activity (MIC) E. coli AG105
  MIC: 1 to 2 µg/mL (≈ 1.69 to 3.37 µM)
[9]; read-out: Activity (MIC) E. coli AG166
  MIC: 1 µg/mL (≈ 1.69 µM)
[10]
  Selectivity Cyt14: 6983
  IC50 Cyt 14: 419 µg/mL (≈ 707 µM)
[15]
  Selectivity A1555G: 47
  IC50 A1555G: 2.8 µg/mL (≈ 4.72 µM)
E coli
  log reduction in colony-forming units (CFUs) compared to vehicle: similar
